Patent US11311609B2, “Regulating chimeric antigen receptors” (DANA-FARBER CANCER INSTITUTE, INC., priority 2017, dated 2022)

Experiments:
Type in all cases: cell-based
FKBP* = target: T1, FKBP* (Homo sapiens, UniProt P62942, F37V); experiment: Immunoblot of FKBP* degradation in 293FT cells (CRBN-WT or CRBN-/-); conditions: 293FT CRBN-WT; pretreated two hours with 1 uM Carfilzomib, 0.5 uM MLN4924 or 10 uM Lenalidomide, then 4 hour dFKBP13
T1 construct: HA; expressed in transfected cells; host or cells: 293FT cells (CRBN-WT or CRBN-/-)
Protocol: FIG. 6 is an immunoblot of cells treated with bi-functional molecules described in the present invention. As described in Example 3, 293FT cells (CRBN-WT or CRBN−/−) expressing either HA-tagged FKBP12WT or FKBP* (also referred to as dFKBP12* herein) were treated with indicated concentrations of dFKBP7 for 4 hours.
FIG. 8 is an immunoblot of cells treated with heterobifunctional compounds described in the present invention. Isogenic 293FT cells (CRBN-WT or CRBN−/−) expressing either FKBP12WT or FKBP* were treated with 100 nM of either dFKBP7 or dFKBP13 for 4 hours (Example 5).
FIG. 9 is an immunoblot of cells treated with heterobifunctional compounds described in the present invention. Isogenic 293FT cells (CRBN-WT or CRBN−/−) expressing HA-tagged FKBP* were treated with the indicated dose of dFKBP13 for 4 hours (Example 6).
FIG. 11 is an immunoblot of cells treated with heterobifunctional compounds described in the present invention. 293FT cells (CRBN-WT) expressing FKBP* were pretreated with 1 uM Carfilzomib (proteasome inhibitor), 0.5 uM MLN4924 (neddylation inhibitor), and 10 uM Lenalidomide (CRBN binding ligand) for two hours prior to a 4 hour treatment with dFKBP13 (Example 8). Degradation of HA-tagged FKBP* by dFKBP13 was rescued by the proteasome inhibitor Carfilzomib, establishing a requirement for proteasome function.
The dTAG is predicated on the selectivity of FKBP* specific ligands over endogenous, wild type FKBP. In 293T cells expressing wild type FKBP12 or FKBP*, dFKBP7 induces targeted degradation only in FKBP* expressing cells. An immunoblot of cells treated with bi-functional molecules described in the present invention was performed. 293FT cells (CRBN-WT or CRBN−/−) expressing either HA-tagged FKBP12WT or FKBP* were treated with indicated concentrations of dFKBP7 for 4 hours.
In 293T cells expressing wild type FKBP12 or FKBP*, treatment with dFKBP7 and dFKBP13 induces targeted degradation only in FKBP* expressing cells. Isogenic 293FT cells (CRBN-WT or CRBN−/−) were engineered to express either FKBP12WT or FKBP*. Cells were treated with 100 nM of either dFKBP7 or dFKBP13 for 4 hours before lysates were prepared for western immunoblot analysis.
In an effort to define the optimal concentration of dFKB13 heterobifunctional compounds to induce degradation of FKBP*, degradation was measured upon treatment with increasing concentrations of dFKBP13. Isogenic 293FT cells (CRBN-WT or CRBN−/−) were engineered to expressed HA-tagged FKBP*. Cells were treated with the indicated dose of dFKBP13 for 4 hours before lysates were prepared for western immunoblot analysis.
293FT cells (CRBN-WT) were engineered to express FKBP*. Cells were pretreated with 1 uM Carfilzomib (proteasome inhibitor), 0.5 uM MLN4924 (neddylation inhibitor), and 10 uM Lenalidomide (CRBN binding ligand) for two hours prior to a 4-hour treatment with dFKBP13. Lysates were prepared and western immunoblot analysis performed. Degradation of HA-tagged FKBP* by dFKBP13 was rescued by the proteasome inhibitor Carfilzomib, establishing a requirement for proteasome function.

FKBP*-KRASG12V = experiment: Immunoblot of FKBP*-KRASG12V degradation in NIH3T3 cells; conditions: NIH3T3 cells expressing dTAG-KRASG12V; 1 μM, 24 hours
Protocol: (§1) FIG. 19 is an immunoblot of NIH3T3 cells expressing KRASG12V allele fused to FKBP* in the N-terminus or C-terminus. Cells were treated with 500 nM dFKBP7 for the indicated time. Cells were harvested and immunoblotted to measure degradation of FKBP*-KRASG12V and downstream surrogates of KRAS signaling (e.g. pMEK and pAKT).
(§2) Cells were harvested and immunoblotted to measure degradation of FKBP*-KRASG12V and downstream surrogates of KRAS signaling (e.g. pMEK and pAKT).
as §2, §2
Cells were treated with 500 nM dFKBP7 for the indicated time. Cells were harvested and immunoblotted to measure degradation of FKBP*-KRAS and downstream surrogates of KRAS signaling (e.g. pMEK and pAKT).
(§3) Cells were harvested and immunoblotted to measure degradation of FKBP*-KRAS and downstream surrogates of KRAS signaling (e.g. pMEK and pAKT).
as §3
To evaluate the kinetic control of targeted degradation of dTAG-KRAS, dFKBP13 was administered by increased duration. […]

[1] = test system: KRAS signaling (pMEK and pAKT); experiment: Immunoblot of downstream surrogates of KRAS signaling in NIH3T3 cells expressing FKBP*-KRASG12V; conditions: NIH3T3 cells expressing dTAG-KRASG12V; 1 μM, 24 hours
Protocol: as §1
(§4) FIG. 20 is an immunoblot of NIH3T3 cells expressing FKBP* fused to the N-terminus of KRASG12V treated with 1 uM of the indicated dFKBP heterobifunctional compounds for 24 hours. Cells were harvested and immunoblotted to measure degradation of FKBP*-KRASG12V and downstream surrogates of KRAS signaling (e.g. pMEK and pAKT).
as §4, with “21” for “20”, “with” for “with 1 uM of”, “concentrations of dFKBP13” for “dFKBP heterobifunctional compounds”
FIG. 22 is an immunoblot of NIH3T3 cells expressing FKBP* fused to the N-terminus of KRASG12V treated with 1 uM dFKBP13 for the indicated time. Cells were harvested and immunoblotted to measure degradation of FKBP*-KRASG12V and downstream surrogates of KRAS signaling (e.g. pMEK and pAKT).
Cells were treated with 500 nM dFKBP7 for the indicated time. […]

T1 sequence (P62942 whole entry F37V): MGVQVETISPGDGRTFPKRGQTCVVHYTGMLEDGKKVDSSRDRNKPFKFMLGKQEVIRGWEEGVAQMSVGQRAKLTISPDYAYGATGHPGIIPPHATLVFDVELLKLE

Row | Effect of pretreatment on dFKBP13-induced degradation of HA-tagged FKBP* (FKBP*) | SMILES | Degradation of FKBP*-KRAS (FKBP*-KRASG12V) | Inhibition of downstream signaling (pMEK, pAKT) [1]
1 | rescued | CC(C)C[C@H](NC(=O)[C@H](CCc1ccccc1)NC(=O)CN1CCOCC1)C(=O)N[C@@H](Cc1ccccc1)C(=O)N[C@@H](CC(C)C)C(=O)[C@@]1(C)CO1 [Carfilzomib] | – | –
2 | rescued HA-tagged FKBP* | NS(=O)(=O)OC[C@@H]1C[C@@H](n2ccc3c(N[C@H]4CCc5ccccc54)ncnc32)C[C@@H]1O [MLN4924] | – | –
3 | – | CC[C@H](C(=O)N1CCCC[C@H]1C(=O)O[C@H](CCc1ccc(OC)c(OC)c1)c1cccc(OCC(=O)NCCCCCCCCNC(=O)COc2cccc3c2C(=O)N(C2CCC(=O)NC2=O)C3=O)c1)c1cc(OC)c(OC)c(OC)c1 (some centres unmarked) [dFKBP9] | potent degradation of FKBP*-KRAS | inhibition of downstream signaling

Row | SMILES | Effect of pretreatment on dFKBP13-induced degradation of HA-tagged FKBP* (FKBP*) | Degradation of FKBP*-KRAS (FKBP*-KRASG12V) | Inhibition of downstream signaling (pMEK, pAKT) [1]
4 | Nc1cccc2c1CN(C1CCC(=O)NC1=O)C2=O (centres unmarked) [Lenalidomide] | abolished dFKBP13-dependent FKBP* degradation | – | –
